# According to publication PMC12638379, “An innovative approach to development of new pyrazolylquinolin-2-one hybrids as dual EGFR and BRAF^V600E inhibitors” (Molecular Diversity, 2025):
# Legend:
# normal cell line WI-38 = assay: MTT cytotoxicity on normal cell line WI-38; conditions: for IC50: Homo sapiens, read-out: Antiproliferative activity IC50 ± SEM
# Bcl-2 = Bcl-2 level in HOP-92 cells (RT-PCR fold change); format: cell-based, human; conditions: for Gene Expression FLD 2^ ΔΔCT bcl2: vs GAPDH, E=1.869, control = 1
# Excerpt: (§1) In the depicted findings, compound 4e affected Bcl-2, caspase-3, and caspase-9, increasing the expression of caspase-3/9 and decreasing the expression of Bcl-2, confirming the apoptotic status.
# (§2) Researcher : Dr.Mohamed Hawas email: mohhawwas80@gmail.com mob. 01151345909 Assay : Cell Cycle Analysis mohamedhassan.pharm.ast@azhr.edu.eg Assay : RT-PCR Samples : 02 SamplesCell lines : ----Ref. : ----Date : 12-06-2023Reader : Rotorgene RT- PCR system Kit used : Qiagen RNA extraction/BioRad syber green PCR MMXSolvent : DMSOAssay samples : Cell Lysate
# Mix all reagents thoroughly without foaming before use. Wash the microwells twice with approximately 300 μL Wash Buffer per well with thorough aspiration of microwell contents between washes. Take caution not to scratch the surface of the microwells. After the last wash, empty the wells and tap microwell strips on absorbent pad or paper towel to remove excess Wash Buffer. Use the microwell strips immediately after washing or place upside down on a wet absorbent paper for not longer than 15 minutes. […] Add 100 μL of Sample Diluent in duplicate to all standard wells and to the blank wells. Prepare standard (1:2 dilution) in duplicate ranging from 32 ng/mL to 0.5 ng/mL. Add 100 μL of Sample Diluent, in duplicate, to the blank wells. Add 80 μL of Sample Diluent, in duplicate, to the sample wells. Add 20 μL of each Sample, in duplicate, to the designated wells. Add 50 μL of diluted biotin-conjugate to all wells, including the blank wells. […] The point, at which the substrate reaction is stopped, is often determined by the ELISA reader. Many ELISA readers record absorbance only up to 2.0 O.D. Therefore, the color development within individual microwells must be watched by the person running the assay and the substrate reaction stopped before positive wells are no longer properly detectable. […] Results must be read immediately after the Stop Solution is added or within one hour if the microwell strips are stored at 2 - 8°C in the dark. Read absorbance of each microwell on a spectrophotometer using 450 nm as the primary wave length.
# caspase-3 = assay: Caspase-3 level in HOP-92 cells (RT-PCR fold change); format: cell-based, human; conditions: for Gene Expression FLD 2^ ΔΔCT Casp3: vs GAPDH, E=1.869, control = 1
# Excerpt: as §1, §2
# Allow all reagents to reach room temperature before use. Gently mix all liquidreagents prior to use. Determine the number of 8-well strips needed for the assay. Insert these in the frame(s) for current use. Add 100 μl of the Standard Diluent Buffer to the zero standard wells. Well(s) reserved for chromogen blank should be left empty. Add 100 μl of standards and controls or diluted samples to the appropriate microtiter wells. The sample dilution chosen should be optimized for each experimental system. Tap gently on side of plate to mix. Cover wells with plate cover and incubate for 2 hours at room temperature. Thoroughly aspirate or decant solution from wells and discard the liquid, Wash wells 4 times. Pipette 100 μl of Caspase-3 (Active) Detection Antibody solution into each well except the chromogen blank(s). Tap gently on the side of the plate to mix. Cover plate with plate cover and incubate for 1 hour at room temperature. Thoroughly aspirate or decant solution from wells and discard the liquid, Wash wells 4 times. Add 100 μl Anti-Rabbit IgG HRP Working Solution to each well except the chromogen blank(s). Prepare the working dilution as described in Preparing IgG HRP. Cover wells with the plate cover and incubate for 30 minutes at room temperature. Thoroughly aspirate or decant solution from wells and discard the liquid. Wash wells 4 times. Add 100 μl of Stabilized Chromogento each well. The liquid in the wells will begin to turn blue. Incubate for 30 minutes at room temperature and in the dark. The incubation time for chromogen substrate is often determined by the microtiter platereader used. Many plate readers have the capacity to record a maximum optical density (O.D.) of 2.0. The O.D. values should be monitored and the substrate reaction stopped before the O.D. of the positive wells exceeds the limits of the instrument. The O.D. values at 450 nm can only be read after the Stop Solution has been added to each well. […] Read the absorbance of each well at 450 nm having blanked the plate reader against a chromogen blank composed of 100 μl each of StabilizedChromogenand Stop Solution. Read the plate within 2 hours after adding the Stop Solution. […] Read the concentrations for unknown samples and controls from the standard curve. […]
# caspase-9 = assay: Caspase-9 level in HOP-92 cells (RT-PCR fold change); format: cell-based, human; conditions: for Gene Expression FLD 2^ ΔΔCT Casp9: vs GAPDH, E=1.869, control = 1
# Excerpt: as §1, §2
# Cells were obtained from American Type Culture Collection, cells were grown in RPMI 1640 containing 10% fetal bovine serum at 37°C, stimulated with the compounds to be tested […], and lysed with Cell Extraction Buffer. This lysate was diluted in Standard Diluent Buffer over the range of the assay and measured for human active caspase-8 or 9 content. […] The absorbance of each microwell was read on a spectro-photometer at 450 nm. A standard curve is prepared from 7 human Caspases standard dilutions and human Caspase-8 or 9 concentration determined.
structure (smiles),measurement,setting,value
"C/C(=N\Nc1ccc(C(=O)O)cc1)c1cnn(-c2cc(=O)[nH]c3ccccc23)c1C [Compound 4f, (E)-4-(2-(1-(5-methyl-1-(2-oxo-1,2-dihydroquinolin-4-yl)-1H-pyrazol-4-yl)ethylidene) hydrazineyl)benzoic acid]",IC50,normal cell line WI-38,42.1 ± 1.68 µM
same,% viability,"normal cell line WI-38; WI38, 0.4uM (log conc. -0.41), listed as ws6, 0.4 µM",79.9762%
same,% viability,"normal cell line WI-38; WI38, 1.6uM (log conc. 0.19), listed as ws6, 1.6 µM",74.5098%
same,% viability,"normal cell line WI-38; WI38, 6.3uM (log conc. 0.8), listed as ws6, 6.3 µM",65.3595%
same,% viability,"normal cell line WI-38; WI38, 100uM (log conc. 2), listed as ws6, 100 µM",41.5924%
"C/C(=N\Nc1ccc(C(=O)O)cc1)c1cnn(-c2cc(=O)[nH]c3ccc(C)cc23)c1C [Compound 4g, (E)-4-(2-(1-(5-methyl-1-(6-methyl-2-oxo-1,2-dihydroquinolin-4-yl)-1H-pyrazol-4-yl)ethylidene)hydrazineyl)benzoic acid]",IC50,normal cell line WI-38,37.6 ± 1.5 µM
same,% viability,"normal cell line WI-38; WI38, 0.4uM (log conc. -0.41), listed as Ws7, 0.4 µM",80.43%
same,% viability,"normal cell line WI-38; WI38, 1.6uM (log conc. 0.19), listed as Ws7, 1.6 µM",70.19%
same,% viability,"normal cell line WI-38; WI38, 6.3uM (log conc. 0.8), listed as Ws7, 6.3 µM",62.8%
same,% viability,"normal cell line WI-38; WI38, 25uM (log conc. 1.4), listed as Ws7, 25 µM",51.55%
same,% viability,"normal cell line WI-38; WI38, 100uM (log conc. 2), listed as Ws7, 100 µM",44.1%
"CN[C@@H]1C[C@H]2O[C@@](C)([C@@H]1OC)n1c3ccccc3c3c4c(c5c6ccccc6n2c5c31)C(=O)NC4 [Staurosporine, reference compound]",Gene Expression FLD 2^ ΔΔCT bcl2,Bcl-2,0.3265
same,Gene Expression FLD 2^ ΔΔCT Casp3,caspase-3,6.9067
same,% viability,"normal cell line WI-38; WI38, 1.6uM (log conc. 0.19), listed as STA, 1.6 µM",68.1%
same,% viability,"normal cell line WI-38; WI38, 100uM (log conc. 2), listed as STA, 100 µM",37.43%
same,Gene Expression FLD 2^ ΔΔCT Casp9,caspase-9,5.5143
"C/C(=N\Nc1ccc(S(N)(=O)=O)cc1)c1cnn(-c2cc(=O)[nH]c3ccc(Br)cc23)c1C [Compound 4e, (E)-4-(2-(1-(1-(6-bromo-2-oxo-1,2-dihydroquinolin-4-yl)-5-methyl-1H-pyrazol-4-yl)ethylidene)hydrazineyl)benzenesulfonamide]",RT-PCR Fold Change FLD Bcl2,Bcl-2; control = 1,0.299
same,Gene Expression FLD 2^ ΔΔCT bcl2,Bcl-2,0.2991
same,RT-PCR Fold Change FLD Casp3,caspase-3; control = 1,4.716
same,Gene Expression FLD 2^ ΔΔCT Casp3,caspase-3,4.7162
same,RT-PCR Fold Change Casp-3,caspase-3; vs untreated control,4.716 fold
same,IC50,normal cell line WI-38,29.6 ± 1.18 µM
same,% viability,"normal cell line WI-38; WI38, 0.4uM (log conc. -0.41), listed as Ws5, 0.4 µM",83.1677%
same,% viability,"normal cell line WI-38; WI38, 1.6uM (log conc. 0.19), listed as Ws5, 1.6 µM",70.8075%
same,% viability,"normal cell line WI-38; WI38, 6.3uM (log conc. 0.8), listed as Ws5, 6.3 µM",60.9938%
same,% viability,"normal cell line WI-38; WI38, 100uM (log conc. 2), listed as Ws5, 100 µM",42.1118%
same,RT-PCR Fold Change FLD Casp9,caspase-9; control = 1,3.082
same,Gene Expression FLD 2^ ΔΔCT Casp9,caspase-9,3.0825
same,RT-PCR Fold Change Casp-9,caspase-9; vs untreated control,3.082 fold
"C/C(=N\Nc1ccc(S(N)(=O)=O)cc1)c1cnn(-c2cc(=O)[nH]c3ccc(Cl)cc23)c1C [Compound 4d, (E)-4-(2-(1-(1-(6-chloro-2-oxo-1,2-dihydroquinolin-4-yl)-5-methyl-1H-pyrazol-4-yl)ethylidene)hydrazineyl)benzenesulfonamide]",IC50,normal cell line WI-38,62.5 ± 2.49 µM
same,% viability,"normal cell line WI-38; WI38, 0.4uM (log conc. -0.41), listed as Ws4, 0.4 µM",80.87%
same,% viability,"normal cell line WI-38; WI38, 1.6uM (log conc. 0.19), listed as Ws4, 1.6 µM",73.32%
same,% viability,"normal cell line WI-38; WI38, 6.3uM (log conc. 0.8), listed as Ws4, 6.3 µM",63.52%
same,% viability,"normal cell line WI-38; WI38, 25uM (log conc. 1.4), listed as Ws4, 25 µM",56.21%
same,% viability,"normal cell line WI-38; WI38, 100uM (log conc. 2), listed as Ws4, 100 µM",46.82%
